From ChEMBL document CHEMBL1221260, “Discovery of cannabinoid-1 receptor antagonists by virtual screening” (Bioorg Med Chem Lett, 2010)
Each block holds one compound with its values, some of them ahead of it.

Key:
Cannabinoid receptor 1 = Cannabinoid receptor 1 (Homo sapiens, UniProt P21554); assay: Inhibition of human CB1 receptor expressed in CHOK1 cells by luciferase reporter gene assay; assay type: cell-based; parameters: concentration or dose not given beside the values; conditions: for inhibition: CHO-K1, concentration not given here
Homo sapiens [1] = species: Homo sapiens; assay: Plasma protein binding in human; conditions: read-out: PPB (converted)
Homo sapiens [2] = species: Homo sapiens; assay: Stability in human plasma for 30 mins
[3] = Plasma protein binding in rat; assay type: ADME, cell-free; conditions: read-out: PPB (converted)
Liver microsomes [4] = assay: Metabolic stability in rat liver microsomes; assay type: ADME, Microsome
[5] = Stability in rat plasma for 30 mins; assay type: ADME, cell-free; conditions: read-out: Stability
Liver microsomes [6] = assay: Metabolic stability in human liver microsomes; assay type: ADME, Microsome

Cannabinoid receptor 1, sequence (P21554 whole entry): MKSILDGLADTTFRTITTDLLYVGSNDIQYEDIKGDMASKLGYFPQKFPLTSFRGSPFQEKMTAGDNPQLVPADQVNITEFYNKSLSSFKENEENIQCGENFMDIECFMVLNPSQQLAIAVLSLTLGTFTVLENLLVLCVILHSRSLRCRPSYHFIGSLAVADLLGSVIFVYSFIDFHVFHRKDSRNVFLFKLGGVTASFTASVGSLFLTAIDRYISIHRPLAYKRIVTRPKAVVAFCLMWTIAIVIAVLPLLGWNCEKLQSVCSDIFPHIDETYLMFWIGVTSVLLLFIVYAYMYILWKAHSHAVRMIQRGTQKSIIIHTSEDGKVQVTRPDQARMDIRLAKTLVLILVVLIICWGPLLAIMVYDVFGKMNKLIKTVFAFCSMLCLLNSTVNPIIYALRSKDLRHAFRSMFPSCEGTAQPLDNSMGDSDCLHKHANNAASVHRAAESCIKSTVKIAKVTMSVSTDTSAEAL

inhibition (Cannabinoid receptor 1): 94%
SMILES: CCOC(=O)c1c(NC(=O)Cc2ccccc2)sc2c1CCN(C(=O)OCC)C2

IC50 (Cannabinoid receptor 1): 290 nM
SMILES: C=C(C)Cn1c(SCC(=O)OC)nc2sc3c(c2c1=O)CC(C)(C)OC3

inhibition (Cannabinoid receptor 1): 90%
SMILES: Cc1ccc(-n2nc3c(c2NC(=O)c2ccco2)CS(=O)(=O)C3)c(C)c1

More lines, now with the values behind:

SMILES: O=C1N=C(Nc2cccc(C(F)(F)F)c2)S/C1=C\c1cccnc1
fraction unbound (Homo sapiens [1]): 0.058
remaining at 0.5 h (Homo sapiens [2]): > 99%
fraction unbound [3]: 0.034
IC50 (Cannabinoid receptor 1): 125 nM
Stability (Liver microsomes [4]): 96.1%
remaining at 0.5 h [5]: > 99%
Stability (Liver microsomes [6]): 87%

SMILES: O=C(NC[C@@H]1CCCO1)c1nc(-c2ccc(Cl)cc2)n2c1CCCCC2
inhibition (Cannabinoid receptor 1): 63%

SMILES: COC(=O)c1cc(S(=O)(=O)N2CCn3c2nc2ccccc23)c[nH]1
inhibition (Cannabinoid receptor 1): 102%

SMILES: COC(=O)c1ccc([C@@H]2CC(=O)N3C(=C2C#N)SC[C@]3(O)c2ccc(C)cc2)cc1
inhibition (Cannabinoid receptor 1): 83%
